According to ChEMBL document CHEMBL1201862, “PubChem BioAssay data set” (2004):
Counter-ions that a name gives are not always drawn.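 96-well plates; 48 h exposure; 5 concentrations. Endpoints by linear interpolation between flanking doses. Not reached: highest tested concentration assigned. Here, GI50 denotes the concentration required for 50% inhibition of growth.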 Calls of active or inactive are those of the source. No stated cut-off is given here; in the data, active = GI50 up to about 1.1 µM and inactive = higher.

Legend:
Experiment in all cases: NCI anticancer screen, dose series, 48 h
A498 = system: A498
ACHN = system: ACHN
CCRF-CEM = system: CCRF-CEM
HCT-116 = system: HCT-116
IGROV-1 = system: IGROV-1
Malme-3M = system: Malme-3M
NCI-H460 = system: NCI-H460
RXF 393 = system: RXF 393
SF-268 = system: SF-268
SF-539 = system: SF-539
SN12C = system: SN12C
SNB-19 = system: SNB-19
SNB-75 = system: SNB-75
U-251 = system: U-251
UO-31 = system: UO-31
MDA-MB-231 = system: MDA-MB-231
NCI/ADR-RES = system: NCI/ADR-RES
PC-3 = system: PC-3
Hs-578T = system: Hs-578T
MDA-N = system: MDA-N

SMILES	GI50 (A498)	GI50 (ACHN)	GI50 (CCRF-CEM)	GI50 (HCT-116)	GI50 (IGROV-1)	GI50 (Malme-3M)	GI50 (NCI-H460)	GI50 (RXF 393)	GI50 (SF-268)	GI50 (SF-539)	GI50 (SN12C)	GI50 (SNB-19)	GI50 (SNB-75)	GI50 (U-251)	GI50 (UO-31)	GI50 (MDA-MB-231)	GI50 (NCI/ADR-RES)	GI50 (PC-3)	GI50 (Hs-578T)	GI50 (MDA-N)
O=C1C2=C(SCCS2)C(=O)c2ccccc21	2.03 µM (inactive)	1.66 µM (inactive)	0.783 µM (active)	1.67 µM (inactive)	1.77 µM (inactive)	1.81 µM (inactive)	1.83 µM (inactive)	2.1 µM (inactive)	1.66 µM (inactive)	1.72 µM (inactive)	1.95 µM (inactive)	1.54 µM (inactive)	1.67 µM (inactive)	1.64 µM (inactive)	1.93 µM (inactive)	–	–	–	–	–
Nn1c(CCCCCCCCc2nnc(COc3ccc(Cl)cc3)n2N)nnc1COc1ccc(Cl)cc1	95.1 µM (inactive)	> 100 µM (inactive)	–	74.5 µM (inactive)	> 100 µM (inactive)	> 100 µM (inactive)	> 100 µM (inactive)	> 100 µM (inactive)	> 100 µM (inactive)	–	> 100 µM (inactive)	> 100 µM (inactive)	> 100 µM (inactive)	> 100 µM (inactive)	25.4 µM (inactive)	> 100 µM (inactive)	> 100 µM (inactive)	68.2 µM (inactive)	–	–
CCOC(=O)CSc1nc(-c2ccc(Cl)cc2)c(C#N)c(=O)[nH]1	> 100 µM (inactive)	> 100 µM (inactive)	41.1 µM (inactive)	72.9 µM (inactive)	> 100 µM (inactive)	–	> 100 µM (inactive)	> 100 µM (inactive)	> 100 µM (inactive)	> 100 µM (inactive)	> 100 µM (inactive)	74.8 µM (inactive)	63.7 µM (inactive)	> 100 µM (inactive)	77.3 µM (inactive)	50.6 µM (inactive)	> 100 µM (inactive)	> 100 µM (inactive)	> 100 µM (inactive)	–
Cc1cc(CNC(=O)OCc2ccccc2)c(C)c2c1Oc1ccccc1O2	23 µM (inactive)	43.8 µM (inactive)	> 100 µM (inactive)	36.6 µM (inactive)	24.2 µM (inactive)	75.9 µM (inactive)	> 100 µM (inactive)	12.7 µM (inactive)	20.7 µM (inactive)	–	24.3 µM (inactive)	25.5 µM (inactive)	11.8 µM (inactive)	18.8 µM (inactive)	28.6 µM (inactive)	6.67 µM (inactive)	19 µM (inactive)	43.4 µM (inactive)	19.7 µM (inactive)	–
S=c1oc(CCCCCCCCc2nn(CNc3ccccc3)c(=S)o2)nn1CNc1ccccc1	> 100 µM (inactive)	> 100 µM (inactive)	–	> 100 µM (inactive)	–	–	> 100 µM (inactive)	–	> 100 µM (inactive)	–	> 100 µM (inactive)	> 100 µM (inactive)	> 100 µM (inactive)	> 100 µM (inactive)	> 100 µM (inactive)	> 100 µM (inactive)	> 100 µM (inactive)	> 100 µM (inactive)	–	–
N#Cc1c(-c2ccccc2)cc(-c2ccc(N)cc2)[nH]c1=O	> 100 µM (inactive)	> 100 µM (inactive)	> 100 µM (inactive)	> 100 µM (inactive)	> 100 µM (inactive)	> 100 µM (inactive)	> 100 µM (inactive)	> 100 µM (inactive)	> 100 µM (inactive)	> 100 µM (inactive)	> 100 µM (inactive)	> 100 µM (inactive)	25.2 µM (inactive)	> 100 µM (inactive)	> 100 µM (inactive)	–	–	–	–	–
Cc1cc2nc3c(C#N)c(-c4ccccc4)cc(Nc4cccc(C(F)(F)F)c4)n3c2cc1C	6.05 µM (inactive)	3.4 µM (inactive)	3.6 µM (inactive)	2.7 µM (inactive)	–	7.87 µM (inactive)	3.33 µM (inactive)	5.48 µM (inactive)	6.97 µM (inactive)	3.78 µM (inactive)	3.68 µM (inactive)	4.86 µM (inactive)	8.83 µM (inactive)	–	5.08 µM (inactive)	3.43 µM (inactive)	4.07 µM (inactive)	2.56 µM (inactive)	–	4.04 µM (inactive)
CC1CC(c2ccc(Cl)cc2)=Nc2ccccc2S1 (stereo unspecified)	> 100 µM (inactive)	> 100 µM (inactive)	> 100 µM (inactive)	> 100 µM (inactive)	> 100 µM (inactive)	> 100 µM (inactive)	> 100 µM (inactive)	> 100 µM (inactive)	> 100 µM (inactive)	> 100 µM (inactive)	> 100 µM (inactive)	> 100 µM (inactive)	> 100 µM (inactive)	> 100 µM (inactive)	> 100 µM (inactive)	–	–	–	–	–
O=C(Cc1ccccc1[N+](=O)[O-])C(CO)c1ccccc1[N+](=O)[O-] (stereo unspecified)	80.4 µM (inactive)	38.2 µM (inactive)	71.4 µM (inactive)	70.5 µM (inactive)	> 100 µM (inactive)	79.4 µM (inactive)	96.8 µM (inactive)	92.5 µM (inactive)	35.2 µM (inactive)	> 100 µM (inactive)	> 100 µM (inactive)	> 100 µM (inactive)	67.3 µM (inactive)	> 100 µM (inactive)	19.9 µM (inactive)	–	–	–	–	–
CC(=O)[C@@H]1C/C(=C\OCc2ccccc2)O[C@H]1C	> 100 µM (inactive)	> 100 µM (inactive)	–	> 100 µM (inactive)	> 100 µM (inactive)	> 100 µM (inactive)	> 100 µM (inactive)	> 100 µM (inactive)	> 100 µM (inactive)	> 100 µM (inactive)	> 100 µM (inactive)	> 100 µM (inactive)	> 100 µM (inactive)	> 100 µM (inactive)	> 100 µM (inactive)	> 100 µM (inactive)	> 100 µM (inactive)	–	–	–
C/C(=N\NC(=S)NC(CCC(=O)O)C(=O)O)c1cnccn1 (stereo unspecified)	> 100 µM (inactive)	> 100 µM (inactive)	> 100 µM (inactive)	> 100 µM (inactive)	> 100 µM (inactive)	> 100 µM (inactive)	> 100 µM (inactive)	> 100 µM (inactive)	> 100 µM (inactive)	> 100 µM (inactive)	> 100 µM (inactive)	> 100 µM (inactive)	> 100 µM (inactive)	> 100 µM (inactive)	> 100 µM (inactive)	–	–	–	–	–
CCC/C(=N/NC(=O)C(N)=O)C(CC)C(=O)CCC(=O)N(Cc1ccccc1)Cc1ccccc1 (stereo unspecified)	> 100 µM (inactive)	> 100 µM (inactive)	> 100 µM (inactive)	> 100 µM (inactive)	> 100 µM (inactive)	> 100 µM (inactive)	> 100 µM (inactive)	> 100 µM (inactive)	> 100 µM (inactive)	> 100 µM (inactive)	> 100 µM (inactive)	> 100 µM (inactive)	> 100 µM (inactive)	> 100 µM (inactive)	> 100 µM (inactive)	–	–	–	–	–
Cc1cccc2c(=O)cc(-c3ccccc3)[nH]c12	5.3 µM (inactive)	12.2 µM (inactive)	3.62 µM (inactive)	5.06 µM (inactive)	7.26 µM (inactive)	4.09 µM (inactive)	3.95 µM (inactive)	3.62 µM (inactive)	8.15 µM (inactive)	5.69 µM (inactive)	5.42 µM (inactive)	7.94 µM (inactive)	1.73 µM (inactive)	21.9 µM (inactive)	15.6 µM (inactive)	–	–	–	–	–
COc1ccccc1NC(=O)CC(=O)N1N=C(N2c3ccccc3Sc3ccccc32)CC1c1ccccc1 (stereo unspecified)	> 100 µM (inactive)	> 100 µM (inactive)	> 100 µM (inactive)	> 100 µM (inactive)	> 100 µM (inactive)	–	> 100 µM (inactive)	> 100 µM (inactive)	> 100 µM (inactive)	> 100 µM (inactive)	> 100 µM (inactive)	> 100 µM (inactive)	> 100 µM (inactive)	> 100 µM (inactive)	> 100 µM (inactive)	> 100 µM (inactive)	> 100 µM (inactive)	> 100 µM (inactive)	> 100 µM (inactive)	–
Cc1ccc(-c2c(C#N)c(-c3ccccc3)n(NS(=O)(=O)c3ccc(C)cc3)c(=O)c2C#N)cc1	52.8 µM (inactive)	38 µM (inactive)	23 µM (inactive)	35.1 µM (inactive)	36.7 µM (inactive)	38.6 µM (inactive)	34.3 µM (inactive)	51.5 µM (inactive)	90.8 µM (inactive)	34 µM (inactive)	82.6 µM (inactive)	50.8 µM (inactive)	92.5 µM (inactive)	49.5 µM (inactive)	–	> 100 µM (inactive)	96.4 µM (inactive)	36.6 µM (inactive)	–	71.8 µM (inactive)
Cc1nn(-c2ccccc2)c2nc3c(c(C)nn3-c3ccccc3)c(-c3ccccc3Br)c12	> 100 µM (inactive)	> 100 µM (inactive)	> 100 µM (inactive)	> 100 µM (inactive)	> 100 µM (inactive)	> 100 µM (inactive)	> 100 µM (inactive)	> 100 µM (inactive)	> 100 µM (inactive)	> 100 µM (inactive)	> 100 µM (inactive)	> 100 µM (inactive)	> 100 µM (inactive)	> 100 µM (inactive)	59.4 µM (inactive)	> 100 µM (inactive)	> 100 µM (inactive)	> 100 µM (inactive)	–	> 100 µM (inactive)
NCCc1cc(O)c(O)cc1O [OXIDOPAMINE HYDROCHLORIDE]	> 100 µM (inactive)	20.9 µM (inactive)	3.97 µM (inactive)	18.7 µM (inactive)	19.3 µM (inactive)	> 100 µM (inactive)	29.2 µM (inactive)	51.4 µM (inactive)	21.8 µM (inactive)	19.2 µM (inactive)	25.3 µM (inactive)	32.5 µM (inactive)	23.7 µM (inactive)	–	25.2 µM (inactive)	19.5 µM (inactive)	34.4 µM (inactive)	33.1 µM (inactive)	–	22.6 µM (inactive)
